The values that follow come from paper PMC6437697 (Journal of Medicinal Chemistry, 2019).

Holding throughout (test): KINOMEscan
Holding throughout (type): binding
Common to all, as to conditions: read-out: % control activity remaining

One assay addresses T1, YANK2 (Homo sapiens, UniProt Q9NY57).
T1 construct: purchased Eurofins DiscoverX KINOMEscan

The next assay has as its target T2, EGFR(L858R) (Homo sapiens, UniProt P00533, L858R).
T2 construct: purchased Eurofins DiscoverX KINOMEscan

Another assay addresses T3, KIT (Homo sapiens, UniProt P10721).
T3 construct: purchased Eurofins DiscoverX KINOMEscan

For a further assay, the target named is T4, EGFR(G719S) (Homo sapiens, UniProt P00533, G719S).
T4 construct: purchased Eurofins DiscoverX KINOMEscan

Another assay addresses T5, CSNK1G2 (Homo sapiens, UniProt P78368).
T5 construct: purchased Eurofins DiscoverX KINOMEscan

Another assay deals with T6, PLK4 (Homo sapiens, UniProt O00444).
T6 construct: purchased Eurofins DiscoverX KINOMEscan
T6 sequence (O00444 1-970): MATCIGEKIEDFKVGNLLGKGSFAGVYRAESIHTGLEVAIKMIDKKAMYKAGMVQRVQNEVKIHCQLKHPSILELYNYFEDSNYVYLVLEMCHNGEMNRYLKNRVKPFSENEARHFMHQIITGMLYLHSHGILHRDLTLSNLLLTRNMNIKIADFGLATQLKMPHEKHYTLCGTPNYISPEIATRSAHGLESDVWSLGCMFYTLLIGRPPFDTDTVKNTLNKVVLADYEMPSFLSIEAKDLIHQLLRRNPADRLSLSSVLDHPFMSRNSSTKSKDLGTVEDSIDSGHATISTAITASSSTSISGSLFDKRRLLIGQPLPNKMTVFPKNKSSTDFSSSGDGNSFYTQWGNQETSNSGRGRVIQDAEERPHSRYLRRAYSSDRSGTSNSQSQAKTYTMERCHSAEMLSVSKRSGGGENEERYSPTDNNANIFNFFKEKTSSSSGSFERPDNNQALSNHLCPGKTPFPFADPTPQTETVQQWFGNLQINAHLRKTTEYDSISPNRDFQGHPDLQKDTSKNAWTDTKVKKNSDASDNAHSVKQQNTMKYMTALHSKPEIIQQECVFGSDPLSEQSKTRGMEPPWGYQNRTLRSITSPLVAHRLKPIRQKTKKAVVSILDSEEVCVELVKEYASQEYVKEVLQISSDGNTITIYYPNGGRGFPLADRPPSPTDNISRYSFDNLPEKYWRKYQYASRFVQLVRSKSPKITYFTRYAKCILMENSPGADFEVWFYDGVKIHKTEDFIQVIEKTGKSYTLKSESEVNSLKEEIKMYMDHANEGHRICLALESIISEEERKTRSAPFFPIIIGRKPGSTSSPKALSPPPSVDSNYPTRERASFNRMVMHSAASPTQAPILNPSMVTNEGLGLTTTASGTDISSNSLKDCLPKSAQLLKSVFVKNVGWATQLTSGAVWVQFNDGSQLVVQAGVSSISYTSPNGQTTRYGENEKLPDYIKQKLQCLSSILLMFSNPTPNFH

The target of a further assay is T7, ULK3 (Homo sapiens, UniProt Q6PHR2).
T7 construct: purchased Eurofins DiscoverX KINOMEscan
T7 sequence (Q6PHR2 1-472): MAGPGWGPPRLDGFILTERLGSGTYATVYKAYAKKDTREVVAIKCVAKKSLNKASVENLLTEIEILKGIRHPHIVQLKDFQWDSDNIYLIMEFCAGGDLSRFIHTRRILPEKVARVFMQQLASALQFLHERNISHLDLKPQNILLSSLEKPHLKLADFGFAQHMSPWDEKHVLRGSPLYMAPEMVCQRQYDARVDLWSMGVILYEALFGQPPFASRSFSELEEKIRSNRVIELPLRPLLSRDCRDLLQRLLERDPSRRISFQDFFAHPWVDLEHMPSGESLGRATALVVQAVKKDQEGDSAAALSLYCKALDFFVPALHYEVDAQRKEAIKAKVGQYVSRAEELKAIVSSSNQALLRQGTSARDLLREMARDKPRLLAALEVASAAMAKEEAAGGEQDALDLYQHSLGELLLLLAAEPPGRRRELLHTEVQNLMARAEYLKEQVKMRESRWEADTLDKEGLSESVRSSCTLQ

For another assay, the target named is T8, ALK (Homo sapiens, UniProt Q9UM73).
T8 construct: purchased Eurofins DiscoverX KINOMEscan

The next assay addresses T9, YES (Homo sapiens, UniProt P07947).
T9 construct: purchased Eurofins DiscoverX KINOMEscan

The next assay has as its target T10, DLK (Homo sapiens, UniProt Q12852).
T10 construct: purchased Eurofins DiscoverX KINOMEscan
T10 sequence (Q12852 1-859): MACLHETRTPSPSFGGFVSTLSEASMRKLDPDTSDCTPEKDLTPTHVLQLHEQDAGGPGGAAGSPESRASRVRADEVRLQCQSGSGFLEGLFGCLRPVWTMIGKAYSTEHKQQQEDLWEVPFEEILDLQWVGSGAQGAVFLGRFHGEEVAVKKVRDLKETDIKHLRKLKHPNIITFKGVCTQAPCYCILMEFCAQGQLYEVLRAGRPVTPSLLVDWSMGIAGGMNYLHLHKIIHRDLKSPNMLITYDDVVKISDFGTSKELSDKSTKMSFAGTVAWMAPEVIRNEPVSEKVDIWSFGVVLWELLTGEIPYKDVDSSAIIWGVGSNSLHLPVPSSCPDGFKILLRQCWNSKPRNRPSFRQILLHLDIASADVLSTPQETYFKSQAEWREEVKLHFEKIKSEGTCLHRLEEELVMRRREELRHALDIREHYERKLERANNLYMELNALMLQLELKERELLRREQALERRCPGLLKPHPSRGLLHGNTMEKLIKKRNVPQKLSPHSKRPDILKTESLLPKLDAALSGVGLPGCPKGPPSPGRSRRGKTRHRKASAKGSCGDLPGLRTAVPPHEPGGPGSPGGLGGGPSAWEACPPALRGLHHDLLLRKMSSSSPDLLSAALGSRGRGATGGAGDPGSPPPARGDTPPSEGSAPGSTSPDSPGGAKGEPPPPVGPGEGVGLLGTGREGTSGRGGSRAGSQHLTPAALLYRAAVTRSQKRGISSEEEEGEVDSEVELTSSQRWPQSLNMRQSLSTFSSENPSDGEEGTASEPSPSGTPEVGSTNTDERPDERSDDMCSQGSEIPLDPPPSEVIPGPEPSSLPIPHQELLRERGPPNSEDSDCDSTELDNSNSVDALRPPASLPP

The target in assay [1] is T11, TYK2(JH2domain-pseudokinase) (Homo sapiens, UniProt P29597).
T11 construct: TYK2(JH2domain-pseudokinase); purchased Eurofins DiscoverX KINOMEscan

Another assay addresses T12, BMPR1A (Homo sapiens, UniProt P36894).
T12 construct: purchased Eurofins DiscoverX KINOMEscan

Another assay addresses T13, FGFR3(G697C) (Homo sapiens, UniProt P22607, G697C).
T13 construct: purchased Eurofins DiscoverX KINOMEscan

T11 sequence (P29597 556-888 limits assumed): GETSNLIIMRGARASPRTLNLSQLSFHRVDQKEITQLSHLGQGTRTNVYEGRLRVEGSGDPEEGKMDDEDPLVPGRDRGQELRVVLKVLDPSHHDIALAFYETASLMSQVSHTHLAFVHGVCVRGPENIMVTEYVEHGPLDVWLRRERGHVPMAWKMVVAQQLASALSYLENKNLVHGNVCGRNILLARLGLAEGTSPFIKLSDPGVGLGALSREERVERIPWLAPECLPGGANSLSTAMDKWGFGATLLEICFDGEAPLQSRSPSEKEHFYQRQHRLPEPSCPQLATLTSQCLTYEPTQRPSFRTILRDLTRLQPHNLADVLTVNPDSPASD
T3 sequence (P10721 26-976): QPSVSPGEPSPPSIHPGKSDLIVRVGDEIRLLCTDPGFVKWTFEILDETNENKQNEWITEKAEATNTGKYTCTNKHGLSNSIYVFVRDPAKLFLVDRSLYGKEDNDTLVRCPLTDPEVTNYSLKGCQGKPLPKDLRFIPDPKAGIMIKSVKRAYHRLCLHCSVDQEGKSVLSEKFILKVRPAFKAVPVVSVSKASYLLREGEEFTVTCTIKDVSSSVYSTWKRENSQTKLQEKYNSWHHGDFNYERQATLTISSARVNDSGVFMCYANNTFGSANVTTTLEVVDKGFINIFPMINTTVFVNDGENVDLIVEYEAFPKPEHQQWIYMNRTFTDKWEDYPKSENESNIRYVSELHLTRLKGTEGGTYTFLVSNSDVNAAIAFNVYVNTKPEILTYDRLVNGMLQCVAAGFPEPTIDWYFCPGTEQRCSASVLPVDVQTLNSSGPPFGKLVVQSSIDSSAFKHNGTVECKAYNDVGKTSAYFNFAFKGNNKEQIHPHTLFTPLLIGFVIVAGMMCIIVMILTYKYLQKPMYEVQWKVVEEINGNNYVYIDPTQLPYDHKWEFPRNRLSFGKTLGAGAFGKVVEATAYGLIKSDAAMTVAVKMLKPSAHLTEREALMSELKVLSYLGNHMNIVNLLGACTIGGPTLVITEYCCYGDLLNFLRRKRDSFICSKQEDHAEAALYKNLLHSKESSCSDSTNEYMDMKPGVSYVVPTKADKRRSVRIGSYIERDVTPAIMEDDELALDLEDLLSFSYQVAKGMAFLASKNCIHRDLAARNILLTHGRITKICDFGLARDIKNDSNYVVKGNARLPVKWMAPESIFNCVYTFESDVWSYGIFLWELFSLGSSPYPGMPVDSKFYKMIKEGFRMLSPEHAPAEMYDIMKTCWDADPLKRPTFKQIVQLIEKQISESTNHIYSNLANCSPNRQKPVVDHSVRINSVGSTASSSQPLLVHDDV
T4 sequence (P00533 25-1210 G719S limits assumed): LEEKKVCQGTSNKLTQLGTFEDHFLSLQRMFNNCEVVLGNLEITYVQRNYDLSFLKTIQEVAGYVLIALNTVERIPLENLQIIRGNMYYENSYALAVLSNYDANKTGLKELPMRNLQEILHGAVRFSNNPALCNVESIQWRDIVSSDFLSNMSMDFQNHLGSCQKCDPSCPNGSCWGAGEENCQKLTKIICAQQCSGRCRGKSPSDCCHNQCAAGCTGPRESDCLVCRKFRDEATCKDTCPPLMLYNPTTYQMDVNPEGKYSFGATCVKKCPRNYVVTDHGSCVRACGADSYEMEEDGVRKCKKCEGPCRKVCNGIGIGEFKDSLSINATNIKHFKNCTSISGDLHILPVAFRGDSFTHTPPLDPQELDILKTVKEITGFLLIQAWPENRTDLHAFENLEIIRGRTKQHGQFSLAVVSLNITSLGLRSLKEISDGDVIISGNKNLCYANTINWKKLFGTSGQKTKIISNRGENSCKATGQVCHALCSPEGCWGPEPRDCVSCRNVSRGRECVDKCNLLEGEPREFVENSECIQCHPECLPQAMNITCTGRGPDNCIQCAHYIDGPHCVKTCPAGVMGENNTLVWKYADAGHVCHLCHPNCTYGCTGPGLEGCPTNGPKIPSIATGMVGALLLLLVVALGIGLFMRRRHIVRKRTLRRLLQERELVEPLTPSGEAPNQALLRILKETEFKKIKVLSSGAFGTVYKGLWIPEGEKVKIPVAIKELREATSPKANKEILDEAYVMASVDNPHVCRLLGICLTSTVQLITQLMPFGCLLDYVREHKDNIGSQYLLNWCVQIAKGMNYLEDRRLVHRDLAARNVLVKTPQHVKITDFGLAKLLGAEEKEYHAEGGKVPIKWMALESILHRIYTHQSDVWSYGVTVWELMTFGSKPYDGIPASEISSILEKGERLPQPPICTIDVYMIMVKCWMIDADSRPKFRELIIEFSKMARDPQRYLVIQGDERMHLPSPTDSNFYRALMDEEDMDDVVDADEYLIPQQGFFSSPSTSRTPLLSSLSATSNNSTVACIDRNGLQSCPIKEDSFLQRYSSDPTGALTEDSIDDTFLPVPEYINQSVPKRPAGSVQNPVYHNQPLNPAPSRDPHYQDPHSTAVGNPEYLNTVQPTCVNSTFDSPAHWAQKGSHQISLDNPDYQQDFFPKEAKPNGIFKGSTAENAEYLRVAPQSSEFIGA
T9 sequence (P07947 whole entry): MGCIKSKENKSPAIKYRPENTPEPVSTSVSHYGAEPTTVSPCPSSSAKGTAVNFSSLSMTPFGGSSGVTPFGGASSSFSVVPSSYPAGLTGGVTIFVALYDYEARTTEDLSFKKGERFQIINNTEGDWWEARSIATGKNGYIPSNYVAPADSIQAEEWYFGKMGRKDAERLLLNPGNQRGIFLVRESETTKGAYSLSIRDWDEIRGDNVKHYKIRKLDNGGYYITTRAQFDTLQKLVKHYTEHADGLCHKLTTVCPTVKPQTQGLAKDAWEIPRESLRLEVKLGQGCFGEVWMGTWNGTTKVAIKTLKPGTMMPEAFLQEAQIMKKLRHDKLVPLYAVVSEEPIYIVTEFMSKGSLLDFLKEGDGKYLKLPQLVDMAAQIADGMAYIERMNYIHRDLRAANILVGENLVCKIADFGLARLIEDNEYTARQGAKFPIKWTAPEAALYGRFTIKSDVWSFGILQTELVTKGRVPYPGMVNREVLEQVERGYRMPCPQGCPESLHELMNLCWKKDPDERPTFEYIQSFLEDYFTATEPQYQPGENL
T13 sequence (P22607 23-806 G697C): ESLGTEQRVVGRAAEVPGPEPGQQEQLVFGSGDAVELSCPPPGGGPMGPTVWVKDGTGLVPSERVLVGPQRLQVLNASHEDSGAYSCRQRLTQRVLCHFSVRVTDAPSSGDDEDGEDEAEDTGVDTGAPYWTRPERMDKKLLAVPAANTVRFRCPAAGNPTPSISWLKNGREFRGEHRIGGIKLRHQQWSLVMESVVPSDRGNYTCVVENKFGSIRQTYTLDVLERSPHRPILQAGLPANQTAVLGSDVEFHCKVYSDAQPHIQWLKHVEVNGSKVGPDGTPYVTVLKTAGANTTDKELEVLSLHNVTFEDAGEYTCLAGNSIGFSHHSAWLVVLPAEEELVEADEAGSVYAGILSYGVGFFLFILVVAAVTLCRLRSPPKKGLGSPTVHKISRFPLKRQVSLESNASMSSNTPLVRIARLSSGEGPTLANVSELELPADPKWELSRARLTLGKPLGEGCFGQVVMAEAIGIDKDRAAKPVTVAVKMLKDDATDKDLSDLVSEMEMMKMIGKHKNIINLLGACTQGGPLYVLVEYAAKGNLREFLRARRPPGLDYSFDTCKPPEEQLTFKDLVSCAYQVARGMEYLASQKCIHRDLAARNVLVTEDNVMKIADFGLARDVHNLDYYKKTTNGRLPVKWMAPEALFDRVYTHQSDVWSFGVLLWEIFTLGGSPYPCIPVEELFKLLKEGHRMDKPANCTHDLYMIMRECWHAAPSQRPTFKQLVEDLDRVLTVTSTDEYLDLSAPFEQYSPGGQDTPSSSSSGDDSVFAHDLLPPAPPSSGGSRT
T2 sequence (P00533 25-1210 L858R limits assumed): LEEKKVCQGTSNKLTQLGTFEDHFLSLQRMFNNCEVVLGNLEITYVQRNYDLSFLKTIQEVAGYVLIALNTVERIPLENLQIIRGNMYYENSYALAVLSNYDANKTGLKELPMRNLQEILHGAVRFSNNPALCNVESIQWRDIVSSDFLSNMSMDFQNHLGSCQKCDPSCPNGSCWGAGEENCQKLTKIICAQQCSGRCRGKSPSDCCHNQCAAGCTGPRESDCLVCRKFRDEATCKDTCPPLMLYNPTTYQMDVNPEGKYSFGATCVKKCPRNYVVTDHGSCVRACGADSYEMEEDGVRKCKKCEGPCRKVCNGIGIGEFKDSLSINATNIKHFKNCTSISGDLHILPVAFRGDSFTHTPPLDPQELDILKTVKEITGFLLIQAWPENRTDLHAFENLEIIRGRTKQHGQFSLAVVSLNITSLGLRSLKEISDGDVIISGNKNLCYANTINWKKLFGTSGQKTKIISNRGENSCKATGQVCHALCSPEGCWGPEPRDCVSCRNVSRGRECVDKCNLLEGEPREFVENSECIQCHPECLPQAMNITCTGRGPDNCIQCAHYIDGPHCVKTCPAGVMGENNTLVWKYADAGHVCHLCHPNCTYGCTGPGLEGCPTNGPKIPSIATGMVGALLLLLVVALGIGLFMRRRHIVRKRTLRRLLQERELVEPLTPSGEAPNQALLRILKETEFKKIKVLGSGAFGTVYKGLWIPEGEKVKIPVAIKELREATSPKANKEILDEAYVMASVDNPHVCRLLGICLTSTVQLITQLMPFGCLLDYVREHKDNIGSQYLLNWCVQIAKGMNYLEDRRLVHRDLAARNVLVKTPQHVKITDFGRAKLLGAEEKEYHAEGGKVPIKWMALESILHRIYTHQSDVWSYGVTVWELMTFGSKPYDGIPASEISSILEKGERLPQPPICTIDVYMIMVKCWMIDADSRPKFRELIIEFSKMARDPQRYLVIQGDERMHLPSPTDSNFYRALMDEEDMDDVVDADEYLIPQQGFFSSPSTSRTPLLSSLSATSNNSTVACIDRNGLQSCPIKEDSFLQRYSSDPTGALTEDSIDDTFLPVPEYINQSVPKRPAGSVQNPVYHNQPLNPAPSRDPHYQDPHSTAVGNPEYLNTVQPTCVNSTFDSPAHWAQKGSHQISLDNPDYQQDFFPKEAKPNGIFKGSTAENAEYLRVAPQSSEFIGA

As for `Clc1cc(NCC2CC2)c2ncc(-c3ccc4[nH]ncc4c3)n2n1` [compound 2, 6-Chloro-N-(cyclopropylmethyl)-3-(1H-indazol-5-yl)imidazo[1,2-b]pyridazin-8-amine], the remaining binding at 1 µM came to 94% at YANK2; 68% at EGFR(L858R); 1.6% at KIT; 85% at EGFR(G719S); 100% on CSNK1G2; 87% on PLK4. Also, the remaining binding at 1 µM is 78% on ULK3; 92% on ALK; 91% on YES; 89% at DLK; 91% in assay [1]; 95% on BMPR1A. Further, the remaining binding at 1 µM at FGFR3(G697C) came out at 78%.

As to `O=C(CN1CCOCC1)N[C@H]1CC[C@H](Nc2cc(Cl)nn3c(-c4ccc5[nH]ncc5c4)cnc23)CC1` [compound 26], the remaining binding at 1 µM on YANK2 is 100%; at EGFR(L858R), 83%; at KIT, 0%; at EGFR(G719S) it was 97%; at CSNK1G2, 95%; at PLK4, 100%. Besides, the remaining binding at 1 µM at ULK3 was 95%; on ALK it was 94%; on YES, 93%; at DLK, 83%; in assay [1], 99%; at BMPR1A, 86%. For the same compound, the remaining binding at 1 µM at FGFR3(G697C) turned out to be 85%.

For `CN1CCC(CNc2cc(Cl)nn3c(-c4cc5nc(Nc6ccccc6)[nH]c5cc4F)cnc23)CC1` [compound 31, 6-Chloro-3-(6-fluoro-2-(phenylamino)-1H-benzo[d]imidazol-5-yl)-N-((1-methylpiperidin-4-yl)methyl)imidazo[1,2-b]pyridazin-8-amine], the remaining binding at 1 µM at YANK2 stood at 100%; on EGFR(L858R), 100%; at KIT, 68%; at EGFR(G719S) it was 71%; at CSNK1G2, 96%; at PLK4, 99%. Also, the remaining binding at 1 µM on ULK3 worked out at 68%; at ALK, 70%; at YES, 96%; at DLK, 100%; in assay [1], 73%; on BMPR1A, 100%. The remaining binding at 1 µM at FGFR3(G697C) worked out at 91%.
